This passage reports IC50 results from PMC2364994, “Complexes With Biologically Active Ligands. Part 1. Synthesis of Coordination Compounds of Diazoxide With Transition- and Main-Group Cations” (Metal-Based Drugs, 1996).

A word on the IC50: it is the point on the concentration scale where inhibition reaches its midpoint. Low readings indicate inhibition by little substance, high ones a need for much substance.

Test [1] deals with T1, Bovine CA II (Bos taurus, UniProt P00921).
T1 construct: gene CA2; commercial enzyme (Sigma Chemical Co.); isozyme described as erythrocyte CA
T1 sequence (P00921 2-260): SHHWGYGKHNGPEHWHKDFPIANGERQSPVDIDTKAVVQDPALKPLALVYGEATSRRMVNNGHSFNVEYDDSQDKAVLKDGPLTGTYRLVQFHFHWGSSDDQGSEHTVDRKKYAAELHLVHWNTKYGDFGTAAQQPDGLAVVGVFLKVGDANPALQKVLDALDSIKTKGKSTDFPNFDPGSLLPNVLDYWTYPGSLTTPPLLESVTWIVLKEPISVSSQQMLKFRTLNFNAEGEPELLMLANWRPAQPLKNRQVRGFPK
In words: Maren's micromethod, CO2 hydration. It is filed as biochemical. The note with it: 0 °C, veronal buffer; E-I technique; unit shows as (M) in the extracted table, text says micromolar range.

Test [2] concerns the target T2, human CA I (Homo sapiens, UniProt P00915).
T2 construct: gene CA1; commercial enzyme (Sigma Chemical Co.); isozyme described as erythrocyte CA
The experiment in a line: Maren's micromethod, CO2 hydration. The format is biochemical. The note with it: 0 °C, veronal buffer; E-I technique; unit shows as (M) in the extracted table, text says micromolar range.

T2 sequence (P00915 2-261): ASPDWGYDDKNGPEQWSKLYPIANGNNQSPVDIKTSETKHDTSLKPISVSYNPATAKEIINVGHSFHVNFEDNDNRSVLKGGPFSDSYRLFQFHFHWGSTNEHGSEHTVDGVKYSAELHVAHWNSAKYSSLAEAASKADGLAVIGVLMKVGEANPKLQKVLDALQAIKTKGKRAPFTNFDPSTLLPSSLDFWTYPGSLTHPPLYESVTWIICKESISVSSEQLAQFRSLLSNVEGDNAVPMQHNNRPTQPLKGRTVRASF

For the substance [PDZO)(OH)a].2HO [compound 14], the results for the IC50 in test [1] and in test [2] were 6e-05 M and 7.2e-05 M, respectively.
For [VO(DZO)(OH)].HO [compound 17], in that order: 0.000125 M and 0.000105 M.
